{
  "source": "patent US4693992A",
  "about": "“Bacitracin-metal-polyether antibiotic complexes” (International Minerals & Chemical Corp., priority 1985, dated 1987)",
  "key": {"buffered rumen fluid": {"system": "buffered rumen fluid", "assay": "Rumen screen, in vitro ruminal volatile fatty acid ratio (Examples 15, 16)", "type": "cell-based, steer", "settings": "Neg. Control 1.39", "description": "Rumen fluid was removed from a fistulated steer and strained through a cheesecloth. An equal amount of pH 7 buffer was added to strained rumen fluid. After layering occurred, the lower layer was saved and again diluted with equal amount of buffer. Ten ml. portions of buffered rumen fluid were added to fermentation vessels containing 500 mg. fresh finely ground cattle ration, 1 mg cellubiose and a test compound listed in Table 1 below at the indicated concentration. The fermentation vesels were outfitted with one-way gas valves, placed in an incubator and shaken for 24 hours at 38° C. Fermentation was stopped by addition of 1 ml mercuric chloride. The liquid was decanted and analyzed for volatile fatty acids by gas chromatography. Test results are summarized in Table 1, wherein Bac=bacitracin.\nThe procedures of Example 15 were repeated in all essential details with the test compounds and concentrations listed in Table 1 below, as are the results of the test."}, "Eimeria tenella [1]": {"system": "Eimeria tenella", "assay": "Anticoccidial activity in chickens inoculated with Eimeria tenella oocysts (Example 11)", "type": "in vivo", "settings": "for Incidence of Bloody Droppings / Morbidity: 4th-6th day; for Morbidity: birds affected/birds in group; for Mortality: 4th-7th day, birds dead/birds in group; for F/G Day 0-3 / F/G Day 4-10: feed per gain", "description": "(§1) This example describes experimental testing of complexes of this invention for anticoccidial activity. Anticoccidial activities of test compounds were determined by administering the compounds (in feed) to chickens inoculated with active oocysts of Eimeria tenella. The test compounds, which are listed in Table 1 below, included four bacitracin-metal-polyether antibiotic complexes prepared according to the procedures described above. In addition, sodium lysocellin, regular bacitracin, sodium monensin, sodium lasolocid, and unmedicated inoculated and noninoculated controls were included for comparative purposes.\n(§2) The test animals were Hubbard White Mountain male chicken (broiler strain) that were 5 days old at the beginning of the test. Each experimental compound was administered in a chick starter diet (Table 2) at a level of 80 g/ton and 120 g/ton. At 7 days of age, chicks were individually weighed, banded, and started on their respective treatments. Each treatment was replicated three times with five birds per replicate for a total of 15 birds per group. The test period was 10 days.\nSeventy-two hours after the initiation of medication, birds were reweighed and orally inoculated with approximately 100,000 Eimeria tenella oocysts suspended in a 1 cc dose of saline. The following criteria were then evaluated over the next seven days: […]\na. morbidity (4th-6th day) b. mortality (4th-7th day) c. incidence of bloody droppings (4th-6th day)"}, "Eimeria tenella [2]": {"system": "Eimeria tenella", "assay": "Anticoccidial activity in chickens inoculated with Eimeria tenella (Example 12)", "type": "in vivo, chicken", "description": "as §1, §2\nSeventy-two hours after the initiation of medication, birds were reweighed and orally inoculated with approximately 100,000 Eimeria tenella oocysts suspended in a 1 cc dose of saline. The following criteria were then evaluated over the next seven days:\nA satisfactory challenge was obtained with Eimeria tenella."}, "[3]": {"assay": "Weight gain and feed utilization in chicks, 12 days (Example 14)", "type": "in vivo, chicken", "settings": ".0066% in feed", "description": "(§3) This example describes experimetnal testing of complexes of the present invention as feed additives for improving weight gain or feed utilization efficiency in birds. Test animals were male meat-type chickens (Hubbard strain). Fluorescent room lights were on a 16 hours light/8 hours dark schedule. The chicks were allotted to the pens on the basis of weight classes, and chicks in the even numbered pens were wing banded. Group weights were obtained at the start and individual weights at the termination of the experiment. Chicks weighing between 55 and 65 grams were selected for the test. The test compounds were blended with a basal feed ration (shown in Table 2) at the indicated concentration. Birds fed […] and feed supplemented with zinc bacitracin (Baciferm® 50, International Minerals and Chemical Corp.) were used as controls. The test was continued for 11 days, after which individual weights, pen weight and feed consumption were recorded and analyzed.\nAll of the bacitracin-metal-polyether antibiotic complexes tested produced statistically significant increases in gains compared to the unmedicated basal ration.\nThe test involving test compounds 1 and 3-14 consisted of 5 replicates of 7 chicks and those involving test compound 2 consisted of 6 replicates of 7 chicks. The tests were continued for 12 days, after which individual weight gains and feed conusumption were recorded and analyzed."}, "[4]": {"assay": "Weight gain and feed utilization efficiency in chicks, 11 days (Example 13)", "type": "in vivo, chicken", "design": "key to Average Weight: average weight in grams", "description": "as §3"}, "[5]": {"settings": "14 g/ton Lasalocid (Approx.), regrouped part of Table 2"}, "[6]": {"settings": "36 g/ton Lasalocid (Approx.), regrouped part of Table 2"}, "[7]": {"settings": ".00275% in rye basal diet, 11 days"}, "[8]": {"settings": ".00275% in rye basal diet, Table 4"}, "[9]": {"settings": ".00275% in rye basal diet, unmedicated = 100"}},
  "data": [
    {"substance": "Bacitracin-Cobalt-Lysocellin Complex [Example 1]", "values": [
      {"measurement": "A/P Ratio", "setting": "buffered rumen fluid; Example 15, 10 ppm, 24 hours at 38° C.", "value": 1.10},
      {"measurement": "Incidence of Bloody Droppings", "setting": "Eimeria tenella [1]; 80 g/ton in feed", "value": "Severe"},
      {"measurement": "Morbidity", "setting": "Eimeria tenella [1]; 80 g/ton in feed", "value": "10/15"},
      {"measurement": "Mortality", "setting": "Eimeria tenella [1]; 80 g/ton in feed", "value": "0/15"},
      {"measurement": "Gain, Grams Day 0-3", "setting": "Eimeria tenella [1]; 80 g/ton in feed", "value": 58.4, "unit": "Grams"},
      {"measurement": "Gain, Grams Day 4-10", "setting": "Eimeria tenella [1]; 80 g/ton in feed", "value": 196.5, "unit": "Grams"},
      {"measurement": "F/G Day 0-3", "setting": "Eimeria tenella [1]; 80 g/ton in feed", "value": 1.75},
      {"measurement": "F/G Day 4-10", "setting": "Eimeria tenella [1]; 80 g/ton in feed", "value": 1.71},
      {"measurement": "Incidence of Bloody Droppings", "setting": "Eimeria tenella [1]; 120 g/ton in feed", "value": "Moderate"},
      {"measurement": "Morbidity", "setting": "Eimeria tenella [1]; 120 g/ton in feed", "value": "4/15"},
      {"measurement": "Mortality", "setting": "Eimeria tenella [1]; 120 g/ton in feed", "value": "0/15"},
      {"measurement": "Gain, Grams Day 0-3", "setting": "Eimeria tenella [1]; 120 g/ton in feed", "value": 54.1, "unit": "Grams"},
      {"measurement": "Gain, Grams Day 4-10", "setting": "Eimeria tenella [1]; 120 g/ton in feed", "value": 209.1, "unit": "Grams"},
      {"measurement": "F/G Day 0-3", "setting": "Eimeria tenella [1]; 120 g/ton in feed", "value": 1.81},
      {"measurement": "F/G Day 4-10", "setting": "Eimeria tenella [1]; 120 g/ton in feed", "value": 1.66},
      {"measurement": "Cecal Bleeding", "setting": "Eimeria tenella [2]; [5]", "value": "Severe"},
      {"measurement": "Gain/Bird Days 0-3", "setting": "Eimeria tenella [2]; [5]", "value": 61.6},
      {"measurement": "Gain/Bird Days 4-10", "setting": "Eimeria tenella [2]; [5]", "value": 180.1},
      {"measurement": "Cecal Bleeding", "setting": "Eimeria tenella [2]; [6]", "value": "Slight"},
      {"measurement": "Feed/Gain Days 0-3", "setting": "Eimeria tenella [2]; [6]", "value": 1.65},
      {"measurement": "Gain/Bird Days 0-3", "setting": "Eimeria tenella [2]; [6]", "value": 59.0},
      {"measurement": "Gain/Bird Days 4-10", "setting": "Eimeria tenella [2]; [6]", "value": 188.4},
      {"measurement": "Incidence of Bloody Droppings", "setting": "Eimeria tenella [2]; 80 g/ton in feed", "value": "Severe"},
      {"measurement": "Morbidity", "setting": "Eimeria tenella [2]; 80 g/ton in feed", "value": "6/15"},
      {"measurement": "Mortality", "setting": "Eimeria tenella [2]; 80 g/ton in feed", "value": "0/15"},
      {"measurement": "F/G Day 0-3", "setting": "Eimeria tenella [2]; 80 g/ton in feed", "value": 1.62},
      {"measurement": "Gain/Bird Grams Day 0-3", "setting": "Eimeria tenella [2]; 80 g/ton in feed", "value": 61.6, "unit": "Grams"},
      {"measurement": "F/G Day 4-10", "setting": "Eimeria tenella [2]; 80 g/ton in feed", "value": 1.86},
      {"measurement": "Gain/Bird Grams Day 4-10", "setting": "Eimeria tenella [2]; 80 g/ton in feed", "value": 180.1, "unit": "Grams"},
      {"measurement": "Cecal bleeding associated with E. tenella infections", "setting": "Eimeria tenella [2]; 80 gram per ton", "value": "severe"},
      {"measurement": "weight gains compared with those of test compound 5 and lasalocid", "setting": "Eimeria tenella [2]; 80 gram per ton (lasalocid 24 gram per ton)", "value": "appreciably higher"},
      {"measurement": "Incidence of Bloody Droppings", "setting": "Eimeria tenella [2]; 120 g/ton in feed", "value": "Slight-"},
      {"measurement": "Morbidity", "setting": "Eimeria tenella [2]; 120 g/ton in feed", "value": "4/15"},
      {"measurement": "Mortality", "setting": "Eimeria tenella [2]; 120 g/ton in feed", "value": "0/15"},
      {"measurement": "F/G Day 0-3", "setting": "Eimeria tenella [2]; 120 g/ton in feed", "value": 1.64},
      {"measurement": "Gain/Bird Grams Day 0-3", "setting": "Eimeria tenella [2]; 120 g/ton in feed", "value": 59.0, "unit": "Grams"},
      {"measurement": "F/G Day 4-10", "setting": "Eimeria tenella [2]; 120 g/ton in feed", "value": 1.78},
      {"measurement": "Gain/Bird Grams Day 4-10", "setting": "Eimeria tenella [2]; 120 g/ton in feed", "value": 188.4, "unit": "Grams"},
      {"measurement": "anticoccidial activity (in words)", "setting": "Eimeria tenella [2]; 120 grams per ton", "value": "good anticoccidial activity"}
    ]},
    {"substance": "Bacitracin-Zinc-Lysocellin Complex [Example 6]", "values": [
      {"measurement": "A/P Ratio", "setting": "buffered rumen fluid; Example 16, 10 ppm", "value": 1.14},
      {"measurement": "Gain/Feed Data", "setting": "[3]; 12 days", "value": ".609"},
      {"measurement": "Gains/gram Data", "setting": "[3]; 12 days", "value": 213.8, "unit": "gram"},
      {"measurement": "Gain/Feed Index Relative to #1", "setting": "[3]; #1 = unmedicated", "value": 108.2},
      {"measurement": "Gains Index Relative to #1", "setting": "[3]; #1 = unmedicated", "value": 115.5},
      {"measurement": "Gain/Feed Index Relative to #2", "setting": "[3]; #2 = zinc bacitracin", "value": 102.2},
      {"measurement": "Gains Index Relative to #2", "setting": "[3]; #2 = zinc bacitracin", "value": 102.0},
      {"measurement": "Average Gain", "setting": "[4]; [7]", "value": 219, "unit": "g"},
      {"measurement": "Gain/Feed Ratio", "setting": "[4]; [7]", "value": 66.7},
      {"measurement": "Average Weight", "setting": "[4]; [8]", "value": 279.4},
      {"measurement": "Gain/Feed", "setting": "[4]; [8]", "value": 66.7},
      {"measurement": "Average Gain Index", "setting": "[4]; [9]", "value": 106.6},
      {"measurement": "Gain/Feed Ratio Index", "setting": "[4]; [9]", "value": 104.7},
      {"measurement": "improvement in feed utilization efficiency vs unmedicated controls", "setting": "[4]; statistical comparison, Table 4", "value": "significant imporvement"}
    ]},
    {"substance": "sodium lysocellin [reference compound]", "values": [
      {"measurement": "A/P Ratio", "setting": "buffered rumen fluid; Example 15, 5 ppm, 24 hours at 38° C.", "value": 1.07},
      {"measurement": "A/P Ratio", "setting": "buffered rumen fluid; Example 16, 5 ppm", "value": 1.07}
    ]}
  ]
}
